≈ marks a conversion by molar mass, not a printed value. Where “and” joins values, the source holds several entries; their conditions need not be identical. Equal entries are not always repeated. Where two headings read alike, the source gives them in different places.
Columns and labels:
[1] = tested on: Enterococcus faecalis ATCC 51299 (vanA-positive; vancomycin-resistant); test: In vitro antibacterial activity, MIC (UCL), VRE; type: cell-based
Method in brief: (§1)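 Broth microdilution MIC in isosensitest broth; inoculum from overnight tryptone soya agar culture suspended in PBS to A600 0.1 (~1 × 10^8 CFU/mL), then diluted 1:100. Compounds tested as 2-fold series from 32 to 0.03 μg/mL, DMSO at most 2%; vancomycin as quality control.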

[2] = tested on: S. aureus ATCC 25923 (methicillin-susceptible); test: In vitro antibacterial activity, MIC (UCL), MSSA; type: cell-based, Staphylococcus aureus; conditions: for MIC: Staphylococcus aureus
Method in brief: as §1

[3] = tested on: Staphylococcus aureus NCTC 13373 (mecA-positive; methicillin-resistant); test: In vitro antibacterial activity, MIC (UCL School of Pharmacy assay), MRSA; type: cell-based; conditions: for MIC: Staphylococcus aureus
Method in brief: as §1

[4] = tested on: VSE; test: In vitro antibacterial activity, MIC, VSE; type: cell-based
[5] = tested on: MRC-5SV2 (human lung fibroblast cell line); test: Toxicity against MRC-5SV2; type: cell-based
Method: (§2) ADME and toxicity for compounds were measured according to procedures outlined in the manuscript submitted in parallel to this one;2 other procedures were used for those compounds analysed by Monash University (in vitro ADME) or UCL (toxicity), both described in the main

[6] = tested on: PMM (primary mouse macrophages); test: Toxicity against PMM; type: cell-based
Method: as §2

SMILES | MIC ([1]; read-out: VRE MIC) | MIC ([2]; read-out: MSSA MIC) | activity against MRSA, in words [3] | MIC ([3]; read-out: MRSA MIC) | MIC ([4]; read-out: VSE MIC) | MRC5 TC50 [5] | PMM TC50 [6] | VRE MIC [1] | MSSA MIC [2] | MRSA MIC [3] | VSE MIC [4] | MIC ([1]; read-out: VRE MIC (UCL)) | MIC ([2]; read-out: MSSA MIC (UCL)) | MIC ([3]; 16 h, read-out: MRSA MIC) | MIC ([3]; UCL, read-out: MRSA MIC (UCL)) | MIC ([4]; read-out: VSE MIC (UCL))
Fc1ccc(-c2c(-c3ccccn3)nc3ccccn23)cn1 [compound 986] | > 32 µg/mL | > 32 µg/mL | inactive | > 32 µg/mL | > 32 µg/mL | – | – | – | – | – | – | – | – | – | – | –
Fc1ccc(Nc2c(-c3ccccn3)nc3ccccn23)cc1 [compound 987] | 32 µg/mL (≈ 105 µM) | 16 µg/mL (≈ 52.6 µM) | – | 8 µg/mL (≈ 26.3 µM) | 32 µg/mL (≈ 105 µM) | 2.3 µg/mL | 9.7 µg/mL | – | – | – | – | – | – | – | – | –
Cc1ccc(Nc2c(-c3ccccn3)nc3ccccn23)cc1 [compound 988] | 16 µg/mL (≈ 53.3 µM) | 4 µg/mL (≈ 13.3 µM) | – | 4 µg/mL (≈ 13.3 µM) | 16 µg/mL (≈ 53.3 µM) | – | – | – | – | – | – | – | – | – | – | –
NC(=O)c1ccc(-n2c(-c3ccccn3)nc3ccccc32)cc1 [compound 989] | – | – | – | – | – | 20.1 µg/mL | 20.1 µg/mL | > 32 µg/mL | > 32 µg/mL | > 32 µg/mL and 32 µg/mL | > 32 µg/mL | – | – | – | – | –
N#Cc1ccc(-n2c(-c3ccccn3)nc3ccccc32)cc1 [compound 990] | – | – | – | – | – | 19.0 µg/mL | 19.0 µg/mL | > 32 µg/mL | > 32 µg/mL | > 32 µg/mL and 32 µg/mL | > 32 µg/mL | – | – | – | – | –
c1ccc(-c2nc3ccccc3n2-c2ccc3occc3c2)nc1 [compound 991] | – | – | – | – | – | 19.9 µg/mL | 12.0 µg/mL | > 32 µg/mL | > 32 µg/mL | – | > 32 µg/mL | – | – | – | – | –
c1ccc(-n2c(-c3ccccn3)nc3ccccc32)cc1 [compound 992] | – | – | – | – | – | 17.4 µg/mL | 17.4 µg/mL | > 32 µg/mL | > 32 µg/mL | > 32 µg/mL and 32 µg/mL | > 32 µg/mL | – | – | – | – | –
c1ccc(Cn2c(-c3ccccn3)nc3ccccc32)cc1 [compound 993] | – | – | – | – | – | 18.3 µg/mL | 18.3 µg/mL | > 32 µg/mL | > 32 µg/mL | > 32 µg/mL and 32 µg/mL | > 32 µg/mL | – | – | – | – | –
c1ccc(-c2nc3ccccc3n2-c2ccc(N3CCCCC3)cc2)nc1 [compound 994] | – | – | – | – | – | 7.0 µg/mL | 5.4 µg/mL | 32 µg/mL | 32 µg/mL | 16 µg/mL | 32 µg/mL | – | – | – | – | –
c1ccc(-c2nc3ccccc3n2-c2ccc(N3CCOCC3)cc2)nc1 [compound 995] | – | – | – | – | – | 22.8 µg/mL | 22.8 µg/mL | > 32 µg/mL | > 32 µg/mL | > 32 µg/mL and 32 µg/mL | > 32 µg/mL | – | – | – | – | –
OC1CCn2c1nc(-c1ccccn1)c2-c1ccc2occc2c1 (centres unmarked) [compound 997] | > 32 µg/mL | > 32 µg/mL | inactive | > 32 µg/mL | > 32 µg/mL | – | – | – | – | – | – | > 32 µg/mL | > 32 µg/mL | > 32 µg/mL | > 32 µg/mL | > 32 µg/mL
COc1ccc2nc(-c3ccccn3)c(N(C)c3cc(F)cc(F)c3)n2c1 [compound 998] | – | – | – | – | – | – | – | 32 µg/mL | 8 µg/mL | 8 µg/mL | 16 µg/mL | – | – | – | – | –
COc1ccnc(-c2nc3cc(OC)ccn3c2N(C)c2ccc(F)cc2)c1 [compound 1000] | – | – | – | – | – | – | – | 8 µg/mL | 8 µg/mL | 2 µg/mL | 8 µg/mL | – | – | – | – | –

Reference: article PMC10714399, “Open Source Antibiotics: Simple Diarylimidazoles Are Potent against Methicillin-Resistant Staphylococcus aureus” (ACS Infectious Diseases, 2023)
